How the values were obtained:
AKT and Glut4 = experiment: Experimental Example 3: intramuscular expression of AKT and Glut4 (western blot, immunostaining); type: in vivo, mouse
Text: (§1) Primary antibodies: Anti-insulin antibody (dilution rate 1:500; DAKO), anti-glucagon antibody (dilution rate 1:500; Linco Research Inc.), anti-DBA antibody (dilution rate 1:300; Vector Laboratories), anti-Pdx-1 antibody (dilution rate 1:1000; kindly provided by Chris V. E. Wright, Vanderbilt University), anti-collagen type IV antibody (dilution rate 1:250; PROGEN Biotechnik), and anti-Glut 4 antibody (dilution rate 1:1000; Chemicon).
(§2) The primary antibodies were detected by immunofluorescence labeling using secondary antibodies conjugated with Alexa 488 or Alexa 568 (1:200; Molecular Probes); third antibody conjugated with biotin-labeled secondary antibodies and streptavidin Alexa 488 or Alexa 568 (1:800; Vector Laboratories); or by an immunoperoxidase staining method using biotin-labeled secondary antibodies. Staining was visualized with diaminobenzidine. The sections were counterstained with hematoxylin. Images were captured on a BZ9000 microscope (Keyence), or in the confocal mode on an LSM 510 META confocal microscope (Carl Zeiss). Immunofluorescence intensity was measured in random fields (n=30/section) using LSM Zeiss software, and the result was expressed as average pixel intensity.
Mice were sacrificed, and the EDL, tibialis anterior, and gastrocnemius muscles were removed and snap-frozen in liquid nitrogen. […]
Protein levels were quantified using NIH Image. […]

Tg23 mice = experiment: Experimental Example 5: β-cell neogenesis and electron microscopy of pancreas; type: in vivo, mouse
Procedure: Pancreases were fixed in 10% formalin, embedded in paraffin, and sliced into sections having a thickness of 2 μm. The sections were immunostained with overnight incubation at 4° C. in dilution solutions containing various primary antibodies described below.
as §1
as §2, with “The sections were counterstained with hematoxylin. Images were captured on a BZ9000 microscope (Keyence), or in the confocal mode on an LSM 510 META confocal microscope (Carl Zeiss).” left out
All pancreatic islets, glucagon positive cells, and insulin-positive cells existing on a single pancreas section were photographed on a Keyence Biorevo microscope, and five to seven sections corresponding to areas that are at least 150 μm apart from one another were evaluated for a single pancreas (a single group includes five to eight males and six to nine females). Areas of β-cells and pancreatic islets were measured for each of the sections using Image Joint and Dynamic Cell Count software (Keyence). […]
Experimental Example 5: Effect of estradiol administration (III) Tg23 mice (23-24 weeks of age) were divided into two groups (each group: n=4 to 10): an estradiol administration group and a control group. […] Then, blood glucose levels of these mice were monitored every week. […]

C[C@]12CC[C@@H]3c4ccc(O)cc4CC[C@H]3[C@@H]1CC[C@@H]2O [estradiol, 17β-estradiol]
glucose transporter (Glut4) in muscle cells (AKT and Glut4; Tg mice in Tx-E group): increased | expression of intramuscular AKT and Glut4 (AKT and Glut4; Tg mice, Tx + 17β-estradiol pellet s.c.): upregulates | neogenesis of β-cells (insulin-producing cells and Pdx-1 in pancreatic duct epithelial cells) (Tg23 mice; Tg23 mice 23-24 weeks of age, Tx+E group vs Tg group): enhanced | mature β-cells (Tg23 mice; Treatment group, 48 weeks of age, electron microscope): formed | insulin secretory granules in pancreatic tissue (electron microscope) (Tg23 mice; Tx+E group (Treatment), 48 weeks of age): observed

Source: patent US20120172344A1, “INSULIN-PRODUCING CELL INDUCER, GLUCOSE INTAKE ENHANCER, AND THERAPEUTIC AGENT FOR DIABETES OR DIABETES COMPLICATIONS” (KYUSHU UNIVERSITY, NATIONAL UNIVERSITY CORPORATION, priority 2009, published 2012)
